Entries after “also recorded” stand apart in the source; their conditions may differ. Structures can show the parent of a compound that is named as a salt.
What was measured:
chestnut = assay: Experiment 2 foliar application in Japanese cypress afforested land; assay type: in vivo, Castanea crenata Sieb et Zucc.; conditions: 0.063%; after 30 days; monosodium salt
Protocol: (§1) The detail of the assessment made in the following Experiments of the invention was as follows:
(§2) The compounds of the invention and other compounds listed in Table 4. were diluted to prescribed concentrations and sprayed to shrubs by foliar application in a Japanese cypress afforested land in an amount of 150 liter per 10 are.
(§3) After 30 days and 3 months, the killing index (0, no effect; 5, death) was determined.
(§4) The heights of plants were 50-70 cm. for Japanese cypress, about 50 cm. for chestnut, 50-90 cm. for miyakozasa, about 100 cm. for eulalia and 70-100 cm. for kumaichigo, respectively.

torch azalea = assay: Experiment 3 foliar application to naturally growing shrubs; assay type: in vivo, Rhododendoron Kaempferi Planch.; conditions: after 3 months
Source text: as §1
(§5) Four months after treatment, evaluation was made for inhibition of reproduction expressed in terms of symbols ranging from (-) to (+++) where (-) means no reproduction, namely complete suppression of reproduction, (±) remarkable suppression of reproduction; (+) considerable suppression of reproduction; (++) medium supprestion of reproduction; and (+++) no suppression of reproduction.
(§6) The compounds of the invention and other compounds listed in Table 5. were diluted to prescribed concentrations and sprayed onto naturally growing shrubs by foliar application in an amount of 150 liter per 10 are.
(§7) 0.1% of octylphenyl polyoxyethanol was added as the surfactant. The killing index (0, no effect; 5, death) after 1 month and 3 months, and the reproduction-inhibiting effect (-, no reproduction; +++, maximum reproduction) after 3 months were determined.

yamazakura = assay: as above; assay type: in vivo, Prunus donarium Sieb. var. spontanae Makino; conditions: after 3 months
Source text: as §1, §5, §6, §7

manna grass = assay: Experiment 1 foliar application to naturally growing weeds; assay type: in vivo, Digitaria adsceudes Henr.; conditions: for Reproduction-inhibiting effect: 2 months
Source text: as §1, §5
(§8) The compounds of the invention and other compounds for comparison listed in Table 3 were diluted to prescribed concentrations and sprayed to naturally growing weeds by foliar application in an amount of 150 liter per 10 are.
(§9) 0.1% of octylphenyl polyoxyethanol was added as a surfactant.
(§10) The killing index (0, no effect, 5, death) after 21 days, and the reproduction-inhibiting effect (-, no reproduction; +++, maximum reproduction) after 2 months (manna grass and cockspar grass) and 4 months (other weeds) were determined.

white clover = assay: as above; assay type: in vivo, Trifolium repens L.; conditions: for Reproduction-inhibiting effect: 4 months
Source text: as §1, §5, §8, §9, §10

eulalia = assay: Experiment 2 foliar application in Japanese cypress afforested land; assay type: in vivo, Miscanthus sinensis Andress.; design: key: 0 = no effect, 5 = death; conditions: 0.125%; after 30 days; monosodium salt
Protocol: as §1, §2, §3, §4

kiichigo = assay: Experiment 3 foliar application to naturally growing shrubs; assay type: in vivo, Rubus palmatsu Thunb. forma coptophyllus Makino; conditions: after 3 months
Source text: as §1, §5, §6, §7

purple nutsedge = assay: Experiment 1 foliar application to naturally growing weeds; assay type: in vivo, Cyperus rotundus L.; conditions: 4 months
Source text: as §1, §5, §8, §9, §10

oak = assay: Experiment 3 foliar application to naturally growing shrubs; assay type: in vivo, Quercus serrata Thunb; conditions: after 3 months
Source text: as §1, §5, §6, §7

Japanese prickly ash = assay: as above; assay type: in vivo, Xanthoxylum piperitum DC.; conditions: after 3 months
Source text: as §1, §5, §6, §7

lace shrub = assay: as above; assay type: in vivo, Stephanandra incisa Zabel; conditions: after 3 months
Source text: as §1, §5, §6, §7

chigaya = assay: Experiment 1 foliar application to naturally growing weeds; assay type: in vivo, Imperata cylindrica Beauv.; conditions: 4 months
Source text: as §1, §5, §8, §9, §10

azumanezasa = assay: as above; assay type: in vivo, Pleioblastus Chino Makino; conditions: 4 months
Source text: as §1, §5, §8, §9, §10

Japanese bush cranberry = assay: Experiment 3 foliar application to naturally growing shrubs; assay type: in vivo, Viburnum dilatatum Thunb.; conditions: for Reproduction-inhibiting: after 3 months
Source text: as §1, §5, §6, §7

hedge bindweed = assay: Experiment 1 foliar application to naturally growing weeds; assay type: in vivo, Calystegis hederacea Wall.; conditions: 4 months
Source text: as §1, §5, §8, §9, §10

warunasubi = assay: as above; assay type: in vivo, Solanum carolinensis L.; conditions: 4 months
Source text: as §1, §5, §8, §9, §10

yabugarashi = assay: as above; assay type: in vivo, Cayratia japonica Houtt.; conditions: 4 months
Source text: as §1, §5, §8, §9, §10

cockspar grass = assay: as above; assay type: in vivo, Echinochloa Crusgalli P. Beauv.; conditions: for Reproduction-inhibiting effect: 2 months
Source text: as §1, §5, §8, §9, §10

water hyacinth = assay: Experiment 5 foliar application to water hyacinths; assay type: in vivo, Eichhornia crassipes Solms; conditions: 3 months, listed as DL-AMPB monosodium salt, monosodium salt
Outline: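 Two plants floated in fertilized water per vessel, sprayed foliarly with 0.1 or 0.2% aqueous compound solutions at 100 liter per 10 are plus 0.1% octylphenyl polyoxyethanol. Killing index (0 no effect to 5 death) scored at 21 days and 3 months; reproduction inhibition scored (-) to (+++) at 3 months.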

kumaichigo = assay: Experiment 2 foliar application in Japanese cypress afforested land; assay type: in vivo, Rubus crataegifolius Bunge
Protocol: as §1, §2, §3, §4

weeds and shrubs = conditions: background statement; cited from earlier work

In the case of `CP(=O)(O)CCC(N)C(=O)O` (racemic) [DL-2-Amino-4-methylphosphinobutanoic acid monosodium salt], the Killing index (chestnut) is reported as 0.5, the Reproduction-inhibiting (torch azalea; 0.05%, monosodium salt) is reported as “+++” and the Reproduction-inhibiting (torch azalea; 0.1%, monosodium salt) is reported as “++”. For the same compound, the Reproduction-inhibiting (torch azalea; 0.2%) was “-”, the Reproduction-inhibiting (yamazakura; 0.05%, monosodium salt) was “+++” and the Reproduction-inhibiting (yamazakura; 0.1%, monosodium salt) was “++”. For the same compound, the Reproduction-inhibiting (yamazakura; 0.2%) was “-”, the Reproduction-inhibiting effect (manna grass; 0.05%, monosodium salt) was “+++” and the Reproduction-inhibiting effect (manna grass; 0.1%, monosodium salt) was “++”. For the same compound, the Reproduction-inhibiting effect (manna grass; 0.2%, monosodium salt) was “±”, the “Killing index of Upperground parts” value (manna grass; 0.2%, 21 days, monosodium salt) was 4.5 and the Reproduction-inhibiting effect (white clover; 0.05%, monosodium salt) was “+++”. For the same compound, the Reproduction-inhibiting effect (white clover; 0.1%, monosodium salt) was “+++”, the Reproduction-inhibiting effect (white clover; 0.2%, monosodium salt) was “+” and the “Killing index of Upperground parts” value (white clover; 0.2%, 21 days, monosodium salt) was 4.5. The Killing index (eulalia) was 2.5, the Reproduction-inhibiting (kiichigo; 0.05%, monosodium salt) was “+++” and the Reproduction-inhibiting (kiichigo; 0.1%, monosodium salt) was “++”. The Reproduction-inhibiting (kiichigo; 0.2%) was “-”, the Reproduction-inhibiting effect (purple nutsedge; 0.05%, monosodium salt) was “+++” and the Reproduction-inhibiting effect (purple nutsedge; 0.1%, monosodium salt) was “+++”. For the same compound, the Reproduction-inhibiting effect (purple nutsedge; 0.2%, monosodium salt) was “+”, the Reproduction-inhibiting (oak; 0.05%, monosodium salt) was “+++” and the Reproduction-inhibiting (oak; 0.1%, monosodium salt) was “++”. The Reproduction-inhibiting (oak; 0.2%) was “-”, the Reproduction-inhibiting (Japanese prickly ash; 0.05%, monosodium salt) was “+++” and the Reproduction-inhibiting (Japanese prickly ash; 0.1%, monosodium salt) was “++”. The Reproduction-inhibiting (Japanese prickly ash; 0.2%) was “-”, the Reproduction-inhibiting (lace shrub; 0.05%, monosodium salt) was “+++” and the Reproduction-inhibiting (lace shrub; 0.1%, monosodium salt) was “++”. The Reproduction-inhibiting (lace shrub; 0.2%) was “-”, the Reproduction-inhibiting effect (chigaya; 0.05%, monosodium salt) was “++” and the Reproduction-inhibiting effect (chigaya; 0.1%, monosodium salt) was “++”. The Reproduction-inhibiting effect (chigaya; 0.2%) was “-”, the Reproduction-inhibiting effect (azumanezasa; 0.05%, monosodium salt) was “+++” and the Reproduction-inhibiting effect (azumanezasa; 0.1%, monosodium salt) was “+”. For the same compound, the Reproduction-inhibiting effect (azumanezasa; 0.2%) was “-”, the Reproduction-inhibiting (Japanese bush cranberry; 0.05%) was “+++” and the Reproduction-inhibiting (Japanese bush cranberry; 0.1%) was “++”. The Reproduction-inhibiting (Japanese bush cranberry; 0.2%, monosodium salt) was “+ +”, the Reproduction-inhibiting effect (hedge bindweed; 0.05%, monosodium salt) was “+++” and the Reproduction-inhibiting effect (hedge bindweed; 0.1%, monosodium salt) was “+++”. For the same compound, the Reproduction-inhibiting effect (hedge bindweed; 0.2%, monosodium salt) was “+++”, the Reproduction-inhibiting effect (warunasubi; 0.05%, monosodium salt) was “+++” and the Reproduction-inhibiting effect (warunasubi; 0.1%, monosodium salt) was “+++”. The Reproduction-inhibiting effect (warunasubi; 0.2%, monosodium salt) was “+”, the Reproduction-inhibiting effect (yabugarashi; 0.05%, monosodium salt) was “+++” and the Reproduction-inhibiting effect (yabugarashi; 0.1%, monosodium salt) was “+++”. The Reproduction-inhibiting effect (yabugarashi; 0.2%, monosodium salt) was “++”, the Reproduction-inhibiting effect (cockspar grass; 0.05%, monosodium salt) was “+ ++” and the Reproduction-inhibiting effect (cockspar grass; 0.1%, monosodium salt) was “++”. For the same compound, the Reproduction-inhibiting effect (cockspar grass; 0.2%, monosodium salt) was “±”, the “Killing index of Upperground parts” value (cockspar grass; 0.2%, 21 days, monosodium salt) was 4.5 and the Reproduction-inhibiting effect (water hyacinth; 0.1%) was “++”. The Reproduction-inhibiting effect (water hyacinth; 0.2%) was “±” and the Killing index (kumaichigo; 0.063%, after 30 days, monosodium salt) was 1.5.
In the case of `O=C(O)CNCP(=O)(O)O` [Glyphosate, N-phosphonomethylglycine], the Reproduction-inhibiting (torch azalea; 0.05%) is reported as “+++”, the Reproduction-inhibiting (torch azalea; 0.1%) is reported as “+++” and the Reproduction-inhibiting (torch azalea; 0.2%) is reported as “+++”. For the same compound, the Reproduction-inhibiting (yamazakura; 0.05%) was “+++”, the Reproduction-inhibiting (yamazakura; 0.1%) was “+++” and the Reproduction-inhibiting (yamazakura; 0.2%) was “++”. The Reproduction-inhibiting effect (manna grass; 0.05%) was “+++”, the Reproduction-inhibiting effect (manna grass; 0.1%) was “++” and the Reproduction-inhibiting effect (manna grass; 0.2%) was “+”. For the same compound, the Reproduction-inhibiting effect (white clover; 0.05%) was “+++”, the Reproduction-inhibiting effect (white clover; 0.1%) was “++” and the Reproduction-inhibiting effect (white clover; 0.2%) was “+”. For the same compound, the Reproduction-inhibiting (kiichigo; 0.05%) was “+++”, the Reproduction-inhibiting (kiichigo; 0.1%) was “+++” and the Reproduction-inhibiting (kiichigo; 0.2%) was “++”. For the same compound, the Reproduction-inhibiting effect (purple nutsedge; 0.05%) was “+++”, the Reproduction-inhibiting effect (purple nutsedge; 0.1%) was “+++” and the Reproduction-inhibiting effect (purple nutsedge; 0.2%) was “+”. For the same compound, the Reproduction-inhibiting (oak; 0.05%) was “+++”, the Reproduction-inhibiting (oak; 0.1%) was “+++” and the Reproduction-inhibiting (oak; 0.2%) was “+++”. The Reproduction-inhibiting (Japanese prickly ash; 0.05%) was “+++”, the Reproduction-inhibiting (Japanese prickly ash; 0.1%) was “+++” and the Reproduction-inhibiting (Japanese prickly ash; 0.2%) was “+++”. For the same compound, the Reproduction-inhibiting (lace shrub; 0.05%) was “+++”, the Reproduction-inhibiting (lace shrub; 0.1%) was “+++” and the Reproduction-inhibiting (lace shrub; 0.2%) was “+++”. The Reproduction-inhibiting effect (chigaya; 0.05%) was “+++”, the Reproduction-inhibiting effect (chigaya; 0.1%) was “++” and the Reproduction-inhibiting effect (chigaya; 0.2%) was “±”. For the same compound, the Reproduction-inhibiting effect (azumanezasa; 0.05%) was “+++”, the Reproduction-inhibiting effect (azumanezasa; 0.1%) was “++” and the Reproduction-inhibiting effect (azumanezasa; 0.2%) was “+”. The Reproduction-inhibiting (Japanese bush cranberry; 0.05%) was “+++”, the Reproduction-inhibiting (Japanese bush cranberry; 0.1%) was “+++” and the Reproduction-inhibiting (Japanese bush cranberry; 0.2%) was “++”. The Killing index (Japanese bush cranberry; 0.2%, after 30 days) was 1.5, the Reproduction-inhibiting effect (hedge bindweed; 0.05%) was “+++” and the Reproduction-inhibiting effect (hedge bindweed; 0.1%) was “+++”. The Reproduction-inhibiting effect (hedge bindweed; 0.2%) was “+++”, the Reproduction-inhibiting effect (warunasubi; 0.05%) was “+++” and the Reproduction-inhibiting effect (warunasubi; 0.1%) was “+++”. For the same compound, the Reproduction-inhibiting effect (warunasubi; 0.2%) was “+”, the Reproduction-inhibiting effect (yabugarashi; 0.05%) was “+++” and the Reproduction-inhibiting effect (yabugarashi; 0.1%) was “+++”. The Reproduction-inhibiting effect (yabugarashi; 0.2%) was “++”, the Reproduction-inhibiting effect (cockspar grass; 0.05%) was “+++” and the Reproduction-inhibiting effect (cockspar grass; 0.1%) was “++”. For the same compound, the Reproduction-inhibiting effect (cockspar grass; 0.2%) was “+”, the “weeding effects of known herbicides in words” value (weeds and shrubs) was “not so effective for broad-leaved weeds; also recorded: poor weeding effects for broadleaved weeds and shrubs” and the Killing index (kumaichigo; 0.125%, after 3 months) was 0.5.

From US4226610A, “Herbicidal compounds, preparation thereof and herbicides containing the same” (Meiji Selka Kaisha, Ltd., priority 1978, dated 1980)
